Results as given in patent US20230203014A1, “NOVEL F[…] FOR LABELING TUMOR TISSUE” (PROIMAGING, priority 2020, published 2023).

Assays:
[1] = tested on: 4T1-Dendra2 mammary tumors; test: in vivo imaging of mammary tumors (fluorescence, IVIS Spectrum); set-up: species or system mice; conditions: starting from 48 h post-injection
Text: ICG (or indocyanine green / Infracyanine) is a fluorescent agent of the prior art, already approved for use in humans for evaluation of cardiac and hepatic function, as well as in ophthalmology, for retinal diseases. It is also undergoing evaluation in many clinical trials throughout the world for guidance of surgery during tumoral exereses, or mapping of the ganglia draining the tumors, by near infrared imaging. ICG was compared with compound (2) according to the invention, synthesis of which is described above in example 2; this compound is called CJ215 in this study.
The study included 30 mice in total, distributed in three groups. The tumoral grafts were all carried out with 50 000 cells 4T1-Dendra2 /20 µl injected in 2 mammary glands contralaterally for each of the mice. […]
The variation of the intensity of the fluorescence signals recorded for each of the biomarkers over time was evaluated from the microscopy image. The capacity of the two markers for producing a signal specifically localized to the tumor was assessed quantitatively by calculating the ratio of the specific signal associated with the tumor to the nonspecific signal in the surrounding tissues. […]
The quantitative measurements were performed on the raw images, which had not been deconvoluted. […]

[2] = tested on: orthotopic pancreatic adenocarcinoma; test: ex vivo fluorescence imaging of pancreatic tumors; assay type: in vivo, mouse; conditions: control dye
Method: A model of orthotopic pancreatic adenocarcinoma in the mouse was developed. The tumoral cells were amplified subcutaneously in SCID mice and the resultant fragments were then implanted surgically in the pancreas of irradiated BALB/c nude mice.
The development of the tumor was monitored in vivo by MRI (4.7T, PharmaScan, Bruker Biospin) at three time points, D14, 28 and 36. The animals were subjected to […] in order to minimize autofluorescence. Fluorescent imaging was performed with a charge-coupled device (CCD) camera (PhotonRT, BiospaceLab) with excitation at 700 nm and an emission filter at 770 nm.
After sessions of in vivo imaging performed at 2 h, 48 h and 164 h, ex vivo fluorescent images were acquired. The fluorescent compounds according to the invention 2 (CJ215) and CJ319 (the structure of which is detailed below) were injected intravenously at 2 mg/kg, 39 days after implantation of the tumor fragments, whereas the average volumes of the tumors were about 70 mm^3. Indocyanine green (ICG), a dye widely used in the per-operative imaging of tumors, was included as a control.

Question: How did the “observability of the fluorescent signal in the tumors” value [1] turn out when CC1(C)C(/C=C/C=C/C=C/C=C2\N(CCCCS(=O)(=O)O)c3ccc4ccccc4c3C2(C)C)=[N+](CCCCS(=O)(=O)[O-])c2ccc3ccccc3c21 [ICG, indocyanine green] was run?
Answer: The value was “no longer observable in the tumors”.

Question: And the “specific accumulation in the pancreas or the tumor” value [2]?
Answer: The value was “did not show any specific accumulation”.
